In publication PMC7614683, “A small molecule PI3Kα activator for cardioprotection and neuroregeneration” (Nature, 2023):

Experiments:
Experiment in all cases: SelectScreen LanthaScreen Binding
Details in all cases: 1000 nM
TGFBR1 (ALK5) = molecular target: T1, TGFBR1 (ALK5) (Homo sapiens, UniProt P36897)
T1 sequence (P36897 34-503): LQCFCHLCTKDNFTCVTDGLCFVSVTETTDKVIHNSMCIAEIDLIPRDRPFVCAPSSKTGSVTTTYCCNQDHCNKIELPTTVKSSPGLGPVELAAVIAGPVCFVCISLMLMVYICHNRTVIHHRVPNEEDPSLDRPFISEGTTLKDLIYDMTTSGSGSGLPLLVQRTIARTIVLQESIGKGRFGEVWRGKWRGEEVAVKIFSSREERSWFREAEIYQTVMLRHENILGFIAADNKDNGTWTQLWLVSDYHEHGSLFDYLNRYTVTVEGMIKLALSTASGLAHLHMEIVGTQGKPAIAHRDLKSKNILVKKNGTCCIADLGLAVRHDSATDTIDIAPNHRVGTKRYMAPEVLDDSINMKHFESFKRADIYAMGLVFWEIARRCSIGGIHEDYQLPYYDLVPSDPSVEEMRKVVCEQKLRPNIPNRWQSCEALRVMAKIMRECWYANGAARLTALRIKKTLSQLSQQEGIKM
Procedure: (§1) 133 protein kinases and 7 lipid kinases were counterscreened, with 1938 used at 1 μM, using the Adapta, Lantha and Z-LYTE assays (SelectScreen Kinase Profiling Service; Thermofisher – experimental details of these assays can be found here: https://www.thermofisher.com/uk/en/home/industrial/pharma-biopharma/drug-discovery-development/target-and-lead-identification-and-validation/kinasebiology/kinase-activity-assays.html. The tree represention in KinMap[59] generated courtesy of Cell Signaling Technology, Inc. (www.cellsignal.com). mTORC1 (mTOR/RAPTOR/LST8) protein complex and ATM kinase and substrates were produced as previously described[57],[60]. Screening of 1938 was conducted using SuperSep Phos-Tag 50 μmol/l 100 x 100 x 6.6 mm 17-well (192-18001/199-18011) gels. For ATM assays, 100 nM ATM was incubated for 30 min at 30°C with 5 μM GST-p53 and 1 mM ATP, in the absence or presence of 200 μM 1938 in ATM Kinase Buffer (50 mM HEPES pH 7.5, 100 mM NaCl, 10% glycerol, 2 mM […], 5 mM MgCl2). As a positive control for ATM activation, the same reaction was carried out with 100 nM ATM/5 μM GST-p53/1 mM ATP in the presence of 100 nM Mre11-Rad50-Nbs1 (MRN) complex, a known activator of ATM[61]. For mTORC1 assays, 50 nM mTORC1 complex (mTOR/LST8/RAPTOR) was incubated for 3 h at 30°C with 15 μM 4E-BP1, 10 mM MgCl2 and 250 μM ATP, in the absence or presence of 200 μM 1938. As a ‘positive’ control, a higher concentration (150 nM) of mTORC1 complex (mTOR/LST8/RAPTOR) was incubated for 3 h at 30°C with 15 μM 4E-BP1, 10 mM MgCl2 and 250 μM ATP. Kinase reactions were quenched by addition of SDS-PAGE Loading Buffer (as per manufacturer’s instructions) and freezing at -20°C before being run on the Phos-tag gels at 150 V for 90 min. Gels were then stained using InstantBlue™ Coomassie, and quantified using BioRad Image Lab Software. Kinase assays were carried out in triplicate.

MYLK (MLCK) = MYLK (MLCK) (Homo sapiens, UniProt Q15746)
Procedure: as §1

MAP4K3 (GLK) = molecular target: T2, MAP4K3 (GLK) (Homo sapiens, UniProt Q8IVH8)
T2 sequence (Q8IVH8 1-894): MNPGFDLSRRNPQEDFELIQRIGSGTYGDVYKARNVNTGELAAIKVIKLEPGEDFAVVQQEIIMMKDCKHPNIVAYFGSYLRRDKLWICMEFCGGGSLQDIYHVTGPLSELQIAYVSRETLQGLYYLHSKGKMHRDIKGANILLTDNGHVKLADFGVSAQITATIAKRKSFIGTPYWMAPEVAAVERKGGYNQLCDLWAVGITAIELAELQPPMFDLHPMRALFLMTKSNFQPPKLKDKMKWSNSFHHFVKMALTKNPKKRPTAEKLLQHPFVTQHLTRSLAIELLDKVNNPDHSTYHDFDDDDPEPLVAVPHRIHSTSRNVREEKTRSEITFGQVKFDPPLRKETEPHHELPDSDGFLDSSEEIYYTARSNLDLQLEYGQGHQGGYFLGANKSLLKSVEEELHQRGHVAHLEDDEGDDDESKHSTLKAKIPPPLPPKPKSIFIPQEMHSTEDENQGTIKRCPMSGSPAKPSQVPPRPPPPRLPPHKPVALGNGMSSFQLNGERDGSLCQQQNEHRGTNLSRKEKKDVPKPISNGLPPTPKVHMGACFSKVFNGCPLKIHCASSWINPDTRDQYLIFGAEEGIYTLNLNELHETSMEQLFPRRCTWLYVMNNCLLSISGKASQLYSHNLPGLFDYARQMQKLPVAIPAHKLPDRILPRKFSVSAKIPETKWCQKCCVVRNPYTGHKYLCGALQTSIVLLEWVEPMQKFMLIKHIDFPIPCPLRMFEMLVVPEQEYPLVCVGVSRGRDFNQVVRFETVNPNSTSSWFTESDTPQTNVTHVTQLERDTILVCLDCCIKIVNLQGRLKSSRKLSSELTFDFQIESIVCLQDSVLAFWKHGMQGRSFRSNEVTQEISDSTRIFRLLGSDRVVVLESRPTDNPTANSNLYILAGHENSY
Procedure: as §1

MYLK (MLCK), sequence (Q15746 whole entry): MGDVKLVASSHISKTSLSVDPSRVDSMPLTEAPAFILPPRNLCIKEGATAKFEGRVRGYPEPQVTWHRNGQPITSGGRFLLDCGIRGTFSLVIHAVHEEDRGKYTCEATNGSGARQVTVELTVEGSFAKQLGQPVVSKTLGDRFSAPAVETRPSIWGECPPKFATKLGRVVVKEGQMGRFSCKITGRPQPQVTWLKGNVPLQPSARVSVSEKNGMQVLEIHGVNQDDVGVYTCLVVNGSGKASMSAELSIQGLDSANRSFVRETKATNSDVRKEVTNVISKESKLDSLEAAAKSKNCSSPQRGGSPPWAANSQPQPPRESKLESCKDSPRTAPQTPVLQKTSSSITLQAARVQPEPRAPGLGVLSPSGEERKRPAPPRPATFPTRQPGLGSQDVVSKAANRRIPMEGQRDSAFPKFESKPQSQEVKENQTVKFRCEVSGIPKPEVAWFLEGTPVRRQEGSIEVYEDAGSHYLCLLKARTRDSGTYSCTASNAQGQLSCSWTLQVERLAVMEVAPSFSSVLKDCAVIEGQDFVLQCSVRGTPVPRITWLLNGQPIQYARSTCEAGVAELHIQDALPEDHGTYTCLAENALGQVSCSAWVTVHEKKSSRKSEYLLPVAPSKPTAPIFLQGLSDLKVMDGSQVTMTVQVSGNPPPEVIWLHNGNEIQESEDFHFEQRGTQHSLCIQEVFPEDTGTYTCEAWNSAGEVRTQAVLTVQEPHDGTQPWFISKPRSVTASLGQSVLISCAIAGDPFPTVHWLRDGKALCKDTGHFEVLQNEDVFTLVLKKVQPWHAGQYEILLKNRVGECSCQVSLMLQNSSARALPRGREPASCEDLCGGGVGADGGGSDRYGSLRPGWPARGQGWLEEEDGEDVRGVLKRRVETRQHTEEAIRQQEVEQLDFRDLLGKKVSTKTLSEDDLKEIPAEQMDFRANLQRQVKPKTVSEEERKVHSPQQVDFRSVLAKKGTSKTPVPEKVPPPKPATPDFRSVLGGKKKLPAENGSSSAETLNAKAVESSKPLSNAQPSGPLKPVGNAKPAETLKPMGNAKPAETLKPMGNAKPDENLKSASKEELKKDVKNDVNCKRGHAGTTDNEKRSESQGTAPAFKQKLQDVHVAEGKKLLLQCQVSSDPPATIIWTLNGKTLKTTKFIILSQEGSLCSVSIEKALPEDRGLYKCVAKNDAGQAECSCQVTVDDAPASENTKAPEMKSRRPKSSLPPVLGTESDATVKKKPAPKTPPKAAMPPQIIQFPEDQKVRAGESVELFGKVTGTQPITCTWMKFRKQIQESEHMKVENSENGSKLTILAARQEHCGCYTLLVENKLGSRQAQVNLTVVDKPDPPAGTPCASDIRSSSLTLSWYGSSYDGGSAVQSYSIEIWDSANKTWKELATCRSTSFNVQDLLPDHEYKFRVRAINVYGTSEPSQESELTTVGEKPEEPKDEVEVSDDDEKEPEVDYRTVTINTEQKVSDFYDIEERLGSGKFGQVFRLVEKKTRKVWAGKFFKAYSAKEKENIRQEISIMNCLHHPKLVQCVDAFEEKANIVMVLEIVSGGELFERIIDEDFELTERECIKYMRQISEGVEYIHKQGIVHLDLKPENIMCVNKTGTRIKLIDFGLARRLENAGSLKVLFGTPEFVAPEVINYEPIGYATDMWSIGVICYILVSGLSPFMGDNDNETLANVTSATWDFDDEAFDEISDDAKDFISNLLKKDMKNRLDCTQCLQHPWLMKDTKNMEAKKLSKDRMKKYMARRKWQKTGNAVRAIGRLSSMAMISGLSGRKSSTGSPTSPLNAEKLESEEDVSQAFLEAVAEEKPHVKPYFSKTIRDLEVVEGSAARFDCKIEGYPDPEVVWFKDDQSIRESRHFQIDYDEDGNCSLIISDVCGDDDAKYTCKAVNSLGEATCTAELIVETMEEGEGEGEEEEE

Structure (SMILES): CCN1CCN(c2ccc(Nc3cc(Nc4cccc5c4N(C(C)=O)CC5)ccn3)cc2)CC1 [Compound 1938]
- % Displacement Point 1 (TGFBR1 (ALK5)): 19%
- % Displacement Point 2 (TGFBR1 (ALK5)): 22%
- % Displacement mean (TGFBR1 (ALK5)): 21%
- % Displacement Point 1 (MYLK (MLCK)): 1.85%
- % Displacement Point 2 (MYLK (MLCK)): 2.24%
- % Displacement mean (MYLK (MLCK)): 2%
- % Displacement Point 1 (MAP4K3 (GLK)): -1.29%
- % Displacement Point 2 (MAP4K3 (GLK)): 0.495%
- % Displacement mean (MAP4K3 (GLK)): -0.396%
